According to EPA's ToxValDB 9.5 (doi:10.2903/j.efsa.2011.2417):
≈ marks a conversion by molar mass, not a printed value.

How the values were obtained:
[1] = tested on: Canidae; settings: oral, Dog Other, hematological
[2] = tested on: Colinus virginianus; settings: mortality
[3] = tested on: Tagia sp.; settings: acute; mortality
[4] = tested on: Anas platyrhynchos; settings: short-term; oral; feed; mortality
[5] = tested on: Typhlodromus pyri; settings: not reported; mortality
[6] = tested on: Oncorhynchus mykiss
[7] = tested on: Daphnia magna; settings: chronic/long-term; duration: 21 days; reproduction
[8] = tested on: Apis mellifera; settings: acute; duration: 48 hours; oral; unspecified; mortality
[9] = tested on: Rattus norvegicus; settings: chronic; duration: 2 years; organ weight

Compound: CCSC(C)CC1CC(=O)C(C(CC)=NOC/C=C/Cl)=C(O)C1 (configuration not stated) [Clethodim]
- NOAEL ([1]; chronic, duration: 1 years): 21 mg/kg-day
- NOAEL ([1]; subchronic, duration: 90 days): 21 mg/kg-day
- LD50 ([2]; acute, oral): > 1640 mg/kg
- NOEL ([2]; reproduction developmental): 17 mg/kg-day
- LC50 [3]: 129 mg/kg
- LC50 [4]: > 851 mg/kg-day
- LEL [5]: 9.6 g/ha
- LC50 ([6]; acute, duration: 96 hours, mortality): 25 µg/mL (≈ 69.5 µM)
- NOEC ([6]; chronic/long-term, duration: 21 days): 3.9 mg/L
- NOEC [7]: 49 mg/L
- LD50 [8]: > 43 µg/piece
- NOAEL [9]: 16 mg/kg-day
